We go through one molecule from patent US11008325B2, “Inhibitors of cancer invasion, attachment, and/or metastasis” (VIRGINIA COMMONWEALTH UNIVERSITY, priority 2016, dated 2021).

“Also recorded” adds a separate entry of the source.

For data set [1], the target named is MDA-9/IGF-1R interactions (Homo sapiens, UniProt O00560). The experiment in a line: co-immunoprecipitation in DU145 and ARCaPM cells. The settings on record: PDZ1i for 6 h. The data set is classed as cell-based. Here is the method:
FIGS. 17A-17H. Effect of PDZ1i on invasion, MDA-9/IGF-R1 interaction and IGF-R1, STAT3 and SRC phosphorylation. FIG. 17A) Different cancer cells (25,000 cells/well) from various anatomic origins were pre-treated with either DMSO (vehicle) or PDZ1i (dose as indicated) and invasion ability was assayed using modified Boyden Chamber according to the manufacturer's instructions. Photomicrographs were taken at 10× magnification and quantification of the results of three independent experiments is provided in the graphs. The data presents mean±S.D. B) The designated cells were treated with DMSO or PDZ1i and invasion properties were determined using a modified Boyden Chamber assay (BD bioscience). RWPE-1 mda-9: mda-9 transiently overexpressing cell line. […] FIG. 17E) Cells were growth starved for 24 h and treated with either DMSO or PDZ1i (dose indicated in μM) for 6 h. Cells were treated with human recombinant IGFBP-2 (hIGFBP-2, 10 ng/ml) for 2 h, lysates were prepared and western blot analysis was conducted with specific antibodies. FIG. 17F) Cells were serum-starved for 24 h and treated with either DMSO or PDZ1i (20 μM) for 6 h. […] Cells were treated with human recombinant […] (hIGFBP-2, 1 ng/ml) for 2 h, cell lysates were prepared and analyzed by western blotting. […]
Next, the effect of PDZ1i on MDA-9 and IGF-1R interactions was determined. […]

The subject of a further data set is melanocytes. The experiment in a line: toxicity to melanocytes. The class given is cell-based. The conditions noted are these: tested up to 100 μM.
The test system of data set [2] is HCC-driven tumor xenograft. The experiment in a line: HCC tumor xenograft, alone or with sorafenib. The data set is classed as in vivo, athymic nude mice. The conditions noted are these: in combination with sorafenib, I.P. Here is the method: FIGS. 48A-48C. Biological effects of PDZ1i in vivo in melanoma, HCC and PC. FIG. 48A) Compounds were administered I.P. 6 times within first two weeks following inoculation (I.V. injection) of B16 cells in C57BL/6 mice to evaluate the anti-metastatic efficacy. FIG. 48B) HCC-driven tumor xenograft was established in athymic nude mice. Compound alone or in combination with Sorafenib were given through I.P. Tumor volumes were considered as an end point of this study. FIG. 48C) Hi-Myc, a mouse model for spontaneous prostate cancer either received the compound or vehicle at the age of 8 weeks (immediate after onset of disease) for total 9 injections (3/week). After 16 weeks from the first injection, prostate were collected and pathologically evaluated. Representative photomicrographs (Left panel) and H and E stained slides (Right panel) from prostate were presented.

The subject of another data set is EGFR. The data set is described as follows: EGFR activation in PC cells. The class given is cell-based. The procedure: Considering the key role of MDA-9/IGF-1R interactions in STAT-3 activation, which has a decisive impact on PC progression, small molecule inhibitors that bind to MDA-9 were tested for their ability to specifically interrupt MDA-9/IGF-1R interactions thereby affecting STAT3 activation and PC invasion. […] In PC cells, PDZ1i-mediated downregulation of c-Src activation is partially IGF-1R dependent. Another tyrosine kinase, EGFR, which is also an interacting partner of MDA-9, has been reported to activate c-Src in PC.

Data set [3] relates to HuVEC cells / chorioallantoic membrane. The data set is described as follows: in vitro tube formation and CAM assays with tumor-derived conditioned media. The data set is classed as cell-based. The settings on record: data not shown. Here is the method: In this study, the potential impact of PDZ1i on tumor-derived angiogenesis in a prostate cancer context was explored. The experimental strategy is outlined in FIG. 18A. […] This observation was also validated in different PC cells by qPCR. Additionally, since VEGF-A is a potent angiogenic factor and a downstream target of STAT3, the expression pattern of VEGF-A at both mRNA and protein levels was also evaluated in different PC cells, including mda-9 stably expressing RWPE-1 cells (FIG. 18C).
Tube formation and CAM assays were performed as described previously^27. Briefly, tumor-derived conditioned media were collected after 24 h of treatment (either DMSO or PDZ1i) and concentrated. Equal amounts of protein (50 μg) containing conditioned media were mixed with basal media and incubated with HuVEC cells on Matrigel layers. Photographs were taken after 6 h. In CAM assays, DMSO- or PDZ1 i-treated tumor cell-derived conditioned media were implanted on the CAM of 8 day-old fertilized eggs. Photographs were taken on day 12, 4 days after applying conditioned media.

Data set [4] is described as follows: toxicity in vivo in pre-clinical animal models. The conditions noted are these: listed as PDZ1i.

Chain of MDA-9/IGF-1R interactions (O00560 2-298 limits assumed): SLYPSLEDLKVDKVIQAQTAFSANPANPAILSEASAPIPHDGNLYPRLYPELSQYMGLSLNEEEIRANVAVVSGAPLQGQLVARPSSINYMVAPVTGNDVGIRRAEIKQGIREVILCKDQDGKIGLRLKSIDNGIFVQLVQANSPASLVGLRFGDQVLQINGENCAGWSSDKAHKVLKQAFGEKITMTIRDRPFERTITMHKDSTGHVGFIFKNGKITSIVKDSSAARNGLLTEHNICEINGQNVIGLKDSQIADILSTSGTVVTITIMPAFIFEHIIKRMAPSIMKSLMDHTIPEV

On to `Cc1cc(NC(=O)c2nc3[nH]c4c(c(=O)n3n2)CCC4)c(C)cc1NC(=O)CCc1nnc(-c2ccccc2)o1` [113B7, N-(2,5-dimethyl-4-(3-(5-phenyl-1,3,4-oxadiazol-2-yl)propanamido)phenyl)-8-oxo-5,6,7,8-tetrahydro-4H-cyclopenta[d][1,2,4]triazolo[1,5-a]pyrimidine-2-carboxamide], for which, in data set [1], the MDA-9/IGF-1R interaction entry was “selectively inhibits”. Further, in the data set with melanocytes, the toxicity to melanocytes entry is “did not show any significant toxicity”. The HCC tumor growth result in data set [2] is listed as “synergistically inhibited HCC growth; also recorded: inhibit HCC tumor growth”. In the data set on EGFR, the EGFR activation entry is on record as “did not have any effect”. The “angiogenic activity of treated tumor cell-derived conditioned media” value in data set [3] is given as “anti-angiogenic properties”. Moreover, the “toxicity / tolerability in vivo” value in data set [4] is recorded as “well-tolerated; also recorded: no apparent toxicity”.
